# Laboratory results published in the METLIN SMRT retention time set (Domingo-Almenara et al. 2019).
# Assay: gradient 5% acetonitrile 3 min, to 50% in 2 min, to 85% in 15 min, held 3 min, 100 µL/min
# Settings: column: Zorbax Extend-C18 2.1 x 50 mm; eluents: water / acetonitrile, 0.1% formic acid
# Outline: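 Standards, all pure, were combined into mixtures of ~100 molecules and run at 100 μL/min on a Zorbax Extend-C18 column (2.1 × 50 mm, 1.8 μm) with water and acetonitrile, each containing 0.1% formic acid. A coupled quadrupole time-of-flight mass spectrometer operated in positive and negative ionization mode. Retention time values come from computationally picked adduct peaks, each inspected manually.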
row,SMILES,RP-LC retention time [s]
1,O=C(NCCc1ccncc1)C1CN(C(=O)COc2ccccc2F)C1,544
2,COc1cc(CC(=O)N2CCN(c3cc(C(C)C)n4cnnc4n3)CC2)cc(OC)c1,635
3,O=C(NCc1ccc2c(c1)CCCN2C(=O)C1CCC1)c1ccc(C(F)(F)F)cc1,990
4,O=C(NCCN1CCCc2ccccc21)C1CCCN(c2ncnc3c2nc2n3CCCCC2)C1 (stereo unspecified),877
5,COc1ccc(OC)c(S(=O)(=O)N2CCCC(C(=O)NC3CC3)C2)c1 (stereo unspecified),710
6,COCCNC(=O)C1CCN(S(=O)(=O)c2ccc3c(c2)NC(=O)CO3)CC1,862
7,Cn1cc(-c2nc(C(=O)Nc3ccc(F)cc3Cl)cs2)c2cccnc21,1210
8,COc1ccc(-c2noc(-c3ccc(=O)n(Cc4c(F)cccc4Cl)c3)n2)cc1,1010
9,CCC(=O)N1CC(c2nc(-c3ccc(F)cc3)no2)C2(CCOCC2)C1 (stereo unspecified),800
10,Cc1ccc(NC(=O)Cn2nc(C(=O)N3CCCC3)c3ccccc32)cc1F,884
11,COc1ccc(-c2nc(CNC(=O)Cn3cnc(-c4cccs4)cc3=O)cs2)cc1,746
12,Cc1ccc(CNC(=O)N2CCc3nc(-c4ccc(F)cc4)ncc3C2)cc1,952
13,CN1C(=O)[C@H]2CN(Cc3cccc(OC(F)(F)F)c3)C[C@H]2C1=O,682
14,O=C(c1cccnc1)N1CCC(c2nc(-c3ccccc3)no2)C1 (stereo unspecified),726
15,CCN1C(=O)c2cc(C(=O)NCc3ccc(F)cc3)nn2CC1(C)C(=O)NC1CCCC1 (stereo unspecified),734
16,CNC(=O)[C@@H]1CN(S(=O)(=O)c2ccc(Cl)s2)C[C@H]1c1n[nH]c(C)n1,656
17,COc1cccc(-c2noc(C3CCCN3C(=O)Nc3ccc(Br)cc3)n2)c1 (stereo unspecified),964
18,COc1ccc(CNC(=O)N2CCN(Cc3nc4cc(Cl)ccc4o3)CC2)cc1,667
19,Cc1csc(-c2cc(S(=O)(=O)N3CCCCC3)c(C)n2C)n1,1040
20,Cc1ccc2oc(SCc3noc(CCC(=O)Nc4nc(-c5ccccc5)cs4)n3)nc2c1,1130
21,Fc1cccc(-c2nc(-c3cn(-c4cccc(F)c4)nn3)no2)c1,1090
22,CCOc1cc(-c2nc(C3CC(=O)N(c4ccc(C)cc4)C3)no2)cc(OCC)c1OCC (stereo unspecified),1150

row,SMILES,RP-LC retention time [s]
1,O=C(Nc1ccc(F)cc1)C1CCN(C(=O)c2ncn3c2COC(c2ccc(F)cc2)C3)CC1 (stereo unspecified),798
2,Cc1nc(-c2csc(S(=O)(=O)N3CCCC(C(=O)NCc4ccccc4C)C3)c2)no1 (stereo unspecified),983
3,COc1ccc(OC)c(NC(=O)C2C(=O)NC3(C)CC2c2ccccc2O3)c1 (stereo unspecified),875
4,O=C(NCCn1nc(-c2ccc(Cl)cc2)ccc1=O)c1csc(-c2ccccc2)n1,854
5,CNC(=O)C1CCCN(c2nc3ncn(CC(=O)Nc4ccc(C(C)C)cc4)c(=O)c3s2)C1 (stereo unspecified),731
6,COc1cc(OC)c(NC(=O)N2CCC3(C2)c2nc[nH]c2CCN3C)cc1Cl (stereo unspecified),569
7,COc1cc(Cc2nc(-c3cccc(-c4ccnn4C)c3)no2)cc(OC)c1,904
8,COc1ccc(CNc2nc(-c3ccccc3)nnc2C)cc1,683
9,CCOc1ccc(C(C)NC(=O)c2cn3c(n2)CN(CC(C)C)CC3)cc1 (stereo unspecified),640
10,CNC(=O)c1ccc(Nc2c(-c3ccc(OC)c(OC)c3)nc3cnccn23)cc1,606
11,CCOC(=O)C1CCN(c2ncc(C(=O)Nc3ccc(OC)cc3)c(N)n2)CC1,698
12,O=C(Nc1ccc2c(c1)OCO2)c1c(O)c2cccnc2n(-c2ccccc2)c1=O,663
13,COC(=O)c1cccc(NC(=O)N2CCC3(CC2)NC(=O)c2ccccc2O3)c1,736
14,O=S(=O)(c1cccs1)N1CCN(c2cnn3cnnc3c2)CC1,652
15,COc1cc(OC)c(NC(=O)CN2C(=O)CN(C)C(=O)c3ccccc32)cc1Cl,719
16,Cc1[nH]nc(-c2c(C)sc(C)c2S(=O)(=O)Nc2cccc(Cl)c2)c1C,1100
17,CC(=O)N1CC[C@]2(CO)CN(C(=O)c3ccsc3)C[C@@H]2C1,565
18,COc1ccc(CNC(=O)Nc2cc3c(cc2N2CCCC2)n(C)c(=O)n3C)cc1,750
19,Cc1ccc(-n2c(N3CCC(C(=O)NCC4CC4)CC3)nc3ccsc3c2=O)cc1,808
20,COCCN1C(=O)c2ccccc2C(C(=O)NCc2ccc(F)cc2)C12CCCC2 (stereo unspecified),879
21,CCCNC(=O)C1CCN(c2ccc(SCC(=O)Nc3cccc(SC)c3)nn2)CC1,677
22,CCCc1noc(-c2ccc3nnc(CC(=O)Nc4ccc(C)cc4C)n3c2)n1,926

row,SMILES,RP-LC retention time [s]
1,O=C(c1ccc2nsnc2c1)N(Cc1ccsc1)Cc1ccco1,898
2,CCOC(=O)c1cc(-c2ccccc2)n(CCC(=O)N2CCN(c3ccccn3)CC2)c1C,715
3,Cc1ccc(NC(=O)N2CCC(c3cc(N)on3)CC2)cc1Cl,774
4,CCn1nccc1C(=O)N1CCCC1c1ccc(OC)cc1 (stereo unspecified),772
5,Cc1ccc(NC(=O)C2(C)Oc3cccnc3N(C)C2=O)c(C)c1 (stereo unspecified),816
6,COc1ccc(NC(=O)c2c(O)c3sccc3n(C)c2=O)cc1Cl,1170
7,CCOCCCNC(=O)N1CC(Oc2ccc(-c3nc(C)no3)cc2)C1,724
8,CCCNC(=O)N1CCN(Cc2nc3cccnc3n2-c2cc(C)cc(C)c2)CC1,656
9,COc1ccc(F)cc1S(=O)(=O)N1CCC(OCc2noc(C3CCCO3)n2)CC1 (stereo unspecified),870
10,CCOCCCNC(=O)C1CCCN(c2nnc(C)c3c(C)n(-c4ccc(Cl)cc4)nc23)C1 (stereo unspecified),688
11,O=C(NC1CCCCCCC1)C1CCN(C(=O)c2ncn3c2COC(c2ccc(Cl)cc2)C3)CC1 (stereo unspecified),936
12,CN(NC1=NCCO1)c1ccc2ccccc2c1,620
13,Cc1c(Cl)cccc1N1C(=O)CN(S(C)(=O)=O)CC1(C)C(=O)NC1CCCCCC1 (stereo unspecified),938
14,CC(C)(C)OC(=O)CN(c1ccc(F)cc1)S(=O)(=O)c1cccn2cnnc12,776
15,COc1ccc2nc3oc(C(=O)NCCN4CCN(C)CC4)cc3cc2c1,597
16,CC(=O)Nc1cccc(N2CC(C(=O)NCc3cccc(Br)c3)CC2=O)c1 (stereo unspecified),703
17,Cc1cc(N2CCCCCC2)n2nc(CN3CCCCC3C)nc2n1 (stereo unspecified),609
18,O=C(Nc1ccc2c(c1)CN(C(=O)C1CC1)CC2)NC1CC1,632
19,CCC(CN1CCOCC1)NC(=O)c1c2c(cn(-c3ccccc3)c1=O)C(=O)CC(C)(C)C2 (stereo unspecified),661
20,O=C(Nc1ncn[nH]1)c1ccccc1,646
21,CN1C(=O)c2cccnc2Sc2cc(NC(=O)C3CCCCC3)ccc21,828
22,CC(C)C(NC(=O)c1ccc(CN2C(=O)C3CCCN3C(=O)c3ccccc32)cc1)c1cccs1 (stereo unspecified),857
